Reference: US8461389B2, “Psycho-pharmaceuticals” (University College Dublin, National University of Ireland, …, priority 2008, dated 2013)

Assays:
serotonin 5HT2c receptor = target: T1, serotonin 5HT2c receptor (Homo sapiens, UniProt P28335); experiment: Novascreen receptor affinity screen (competition with reference ligand), 5HT2c; assay type: binding; conditions: 1 μM Captodiamine competing with a reference ligand; read-out: percent target inhibition, serotonin 5HT2c receptor
T1 construct: Novascreen (contract screen)
T1 sequence (P28335 33-458): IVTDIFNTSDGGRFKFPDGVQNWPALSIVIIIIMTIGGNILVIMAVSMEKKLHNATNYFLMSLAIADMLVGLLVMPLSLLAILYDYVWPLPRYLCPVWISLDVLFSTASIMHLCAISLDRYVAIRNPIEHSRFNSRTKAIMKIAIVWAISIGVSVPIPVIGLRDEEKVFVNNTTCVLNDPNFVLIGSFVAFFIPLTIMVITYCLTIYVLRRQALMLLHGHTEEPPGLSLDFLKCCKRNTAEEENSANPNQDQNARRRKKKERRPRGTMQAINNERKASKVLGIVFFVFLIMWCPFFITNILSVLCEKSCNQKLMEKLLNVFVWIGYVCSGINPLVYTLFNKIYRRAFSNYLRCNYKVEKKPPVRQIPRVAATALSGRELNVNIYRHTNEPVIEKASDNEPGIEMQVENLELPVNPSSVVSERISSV
Experimental: (§1) The Structure (FIG. 9A), receptor affinity (FIG. 9B), pharmacokinetics (FIG. 9C) and growth factor modulation (FIG. 9D) of Captodiamine are provided. Analysis of receptor affinities was performed by Novascreen™ and those displacing >20% of the natural ligand are indicated by the filled boxes. Blood levels of Captodiamine were determined by GC mass spectroscopy. In separate samples taken from a cannulated jugular at increasing time intervals following a single intraperitoneal injection of tha drug (5 mg/kg). Growth factor analysis was performed using tissue homogenates and ELISA assays specific for each growth factor (Promega). Values were analysed using a Student t-test and those with a p value<0.05 were accepted as significant and are indicated with an asterisk.
(§2) The higher the target inhibition value, the greater the affinity Captodiamine has for this particular receptor as it displaces a greater proportion of the reference ligand. This assay is an automated high throughput assay performed on cell lines that express only one type of receptor and was carried out by Novascreen (www.novascreen.com). Receptor affinity is a good starting point for determining the mechanism of action for a particular compound.

Sigma 2 receptor = target: T2, Sigma 2 receptor (Homo sapiens, UniProt Q5BJF2); experiment: Novascreen receptor affinity screen (competition with reference ligand), Sigma 2; assay type: binding; conditions: 1 μM Captodiamine competing with a reference ligand; read-out: percent target inhibition, Sigma 2 receptor
T2 construct: Novascreen (contract screen)
T2 sequence (Q5BJF2 whole entry, species assumed): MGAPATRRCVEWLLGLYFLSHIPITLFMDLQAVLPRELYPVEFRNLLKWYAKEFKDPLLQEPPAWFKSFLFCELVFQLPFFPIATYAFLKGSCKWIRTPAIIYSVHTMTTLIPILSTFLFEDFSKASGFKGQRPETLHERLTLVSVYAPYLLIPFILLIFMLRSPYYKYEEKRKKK
Experimental: as §1, §2

C57B16 mice = experiment: Forced swim test; assay type: in vivo; conditions: 3 and 5 mg/kg i.p.; FIGS. 10A and 10B
Experimental: • 1. Fill a 12 cm diameter glass cylinder to 10 cm with 22° C. water. • 2. Place two animals simultaneously in individual side-by-side cylinders separated by an opaque screen. • 3. Place mice in the cylinders for 6 minutes. • 4. Observe the behaviour of the mice for the last 4-minutes of the 6-minute experimental session. • 5. Sessions are videotaped and scored blind, Immobility is scored by summing the time spent immobile; movements necessary to maintain the animals head above water were not scored with data from treated groups compared with data from the control group using nonpaired Student's t tests (two tailed). • 6. Animals are dried with paper towels and heat lamps. FST in Rats: Habituation Session (Day 1) • 1. On Day 1, […] prior to testing, place the animals in the experimental room 60 min before the beginning of the habituation session. Randomly assign animals to a drug treatment, but give all animals within a cage the same treatment. Make food and water available throughout the experiment. • 2. Weigh two animals individually, then place one rat in each of the two cylinders (20 cm in diameter×40 cm high) containing water (25° C.) for 15 min (habituation session). No scoring of immobility is performed during the habituation session. […]
Values are expressed as mean±S.E.M (n=8). Statistical difference was determined using a Mann Whitney non-parametric U-test. […]

[1] = test system: BDNF (Brain-derived neurotrophic factor); experiment: BDNF levels in brain regions by ELISA after sub-chronic administration; assay type: in vivo, mice; conditions: sub-chronic 7 day treatment, FIG. 9D
Experimental: Neurotrophic factor concentration was determined by using an ELISA purchased from Promega Inc;
The Experimental protocol employed in the behavioural evaluation of Captodiamine is set out as follows: Three separate cohorts of C57B16 mice were employed in the behavioural evaluation of Captodiamine (see FIG. 7). Cohort 1 was used to evaluate the drug effect on prepulse inhibition, spatial learning, open-field and novel object recognition. Cohort 2 was used to evaluate drug effects on the forced swim test and the elevated X-maze. The behavioural tests were administered in sequence as per day number indicated in the bar of FIG. 7. The drug was administered by the intraperitoneal route and on the day of training the drug was administered after the behavioural analysis. Cohort 3 was used for analysis of growth factor (GF) expression (such as, for example, Brain Derived Neurotrophic Factor (BDNF and Glial Derived Neurotrophic Factor (GDNF). The brains were removed immediately after sacrifice, the relevant brain areas dissected, homogenised and stored at −80° C. until analysis. Captodiamine/UCD-0620 was administered at doses of 3 and 5 mg/kg. The compound was administered once daily, via the intraperitoneal route, for 7 days prior to testing and the animals were drug-free at time of training.
as §1

SMILES: CCCCSc1ccc(C(SCCN(C)C)c2ccccc2)cc1 (stereo not drawn) [Captodiamine, 2-[(4-butylsulfanylphenyl)-phenyl-methyl]sulfanyl-N,N-dimethyl-ethanamin]
- inhibition at 1 µM (serotonin 5HT2c receptor): > 80%
- inhibition at 1 µM (Sigma 2 receptor): > 20%
- time to immobility in the forced swim test (C57B16 mice): significant increase on time to immobility
- BDNF expression levels, hippocampus [1]: no effect
- BDNF expression levels, hypothalamus [1]: significantly increased
- BDNF expression levels, prefrontal cortex [1]: no effect
